Measured values: the NIST ThermoML archive (doi:10.1021/je800439e)
Several values for one entry are separate records, joined by “and”; a condition that tells them apart may be missing. Identical values can stand only once. Numbers after ± are expanded uncertainties.

What was measured:
[1] = 101 kPa, Liquid
[2] = xn = mol fraction of the nth substance listed; conditions: 101 kPa, Liquid

Cc1c(C)c2c(c(C)c1O)CCC(C)(CCCC(C)CCCC(C)CCCC(C)C)O2 (racemic) [dl-α-tocopherol]
[1]
Conditions | viscosity
278.15 K | 37128 ± 10000 mPa·s
284.15 K | 15242 ± 3600 mPa·s
290.15 K | 6380 ± 1300 mPa·s and 6380.1 ± 1300 mPa·s
296.15 K | 3017.5 ± 510 mPa·s
302.15 K | 1531 ± 220 mPa·s
308.15 K | 814.81 ± 94 mPa·s
314.15 K | 454.58 ± 42 mPa·s
320.15 K | 283.56 ± 21 mPa·s
325.15 K | 187.51 ± 11 mPa·s
330.15 K | 129.2 ± 5.7 mPa·s
335.15 K | 92.65 ± 3 mPa·s
340.15 K | 67.32 ± 1.6 mPa·s
345.15 K | 49.98 ± 1.1 mPa·s
350.15 K | 37.4 ± 0.85 mPa·s

Cc1cc(C)cc(C)c1 [1,3,5-trimethylbenzene]
[1]
Conditions | viscosity [mPa·s]
278.15 K | 0.85 ± 0.03
284.15 K | 0.8 ± 0.03
290.15 K | 0.75 ± 0.03
296.15 K | 0.63 ± 0.03
302.15 K | 0.57 ± 0.03
308.15 K | 0.53 ± 0.03
314.15 K | 0.49 ± 0.03
320.15 K | 0.46 ± 0.03
325.15 K | 0.44 ± 0.02
330.15 K | 0.41 ± 0.02
335.15 K | 0.4 ± 0.02
340.15 K | 0.39 ± 0.02
345.15 K | 0.35 ± 0.02
350.15 K | 0.34 ± 0.02

Cc1cc(C)cc(C)c1 [1,3,5-trimethylbenzene] + Cc1c(C)c2c(c(C)c1O)CCC(C)(CCCC(C)CCCC(C)CCCC(C)C)O2
[2], x2 = 0
Conditions | viscosity [mPa·s]
278.15 K | 0.85 ± 0.02
284.15 K | 0.8 ± 0.02
290.15 K | 0.75 ± 0.02
296.15 K | 0.63 ± 0.02
302.15 K | 0.57 ± 0.02
308.15 K | 0.53 ± 0.01
314.15 K | 0.49 ± 0.01
320.15 K | 0.46 ± 0.01
325.15 K | 0.44 ± 0.01
330.15 K | 0.41 ± 0.01
335.15 K | 0.4 ± 0.01
340.15 K | 0.39 ± 0.01
345.15 K | 0.35 ± 0.01
350.15 K | 0.34 ± 0.01

CCCCCc1ccc(C2CCC(CCC)CC2)cc1 (stereo not given) [1-pentyl-4-(4-propylcyclohexyl)-benzene]
[1]
Conditions | viscosity [mPa·s]
278.15 K | 27.74 ± 0.39
284.15 K | 21.48 ± 0.31
290.15 K | 16.95 ± 0.24
296.15 K | 13.5 ± 0.19
302.15 K | 11.09 ± 0.15
308.15 K | 9.21 ± 0.13
314.15 K | 7.64 ± 0.1
320.15 K | 6.58 ± 0.09
325.15 K | 6.01 ± 0.08
330.15 K | 5.19 ± 0.07
335.15 K | 4.57 ± 0.06
340.15 K | 4.13 ± 0.06
345.15 K | 3.68 ± 0.05
350.15 K | 3.29 ± 0.05

CCCCCc1ccc(C2CCC(CCC)CC2)cc1 (stereo not given) [1-pentyl-4-(4-propylcyclohexyl)-benzene] + Cc1c(C)c2c(c(C)c1O)CCC(C)(CCCC(C)CCCC(C)CCCC(C)C)O2
viscosity [mPa·s], [2]
Conditions | x2 = 0 | x2 = 0.2058 | x2 = 0.4023 | x2 = 0.6026 | x2 = 0.8018
278.15 K | 27.74 ± 0.39 | 75.95 ± 4 | 384.28 ± 34 | 1270.6 ± 180 | 7471.9 ± 1600
284.15 K | 21.48 ± 0.31 | 53.48 ± 0.82 | 231.6 ± 15 | 794.38 ± 90 | 3488.2 ± 610
290.15 K | 16.95 ± 0.24 | 38.25 ± 0.65 | 145.52 ± 6.8 | 441.94 ± 40 | 1669.9 ± 240
296.15 K | 13.5 ± 0.19 | 28.1 ± 0.46 | 96.37 ± 3 | 266.41 ± 19 | 911.16 ± 110
302.15 K | 11.09 ± 0.15 | 21.57 ± 0.34 | 65.92 ± 1.3 | 163.27 ± 8.5 | 485.33 ± 46
308.15 K | 9.21 ± 0.13 | 16.8 ± 0.26 | 46.14 ± 0.84 | 106.33 ± 3.8 | 278.53 ± 20
314.15 K | 7.64 ± 0.1 | 13.17 ± 0.2 | 33.91 ± 0.58 | 71.05 ± 1.6 | 173.09 ± 9.4
320.15 K | 6.58 ± 0.09 | 10.98 ± 0.16 | 26.01 ± 0.43 | 51.66 ± 0.86 | 120.77 ± 4.9
325.15 K | 6.01 ± 0.08 | 9.33 ± 0.14 | 20.65 ± 0.34 | 39.36 ± 0.74 | 82.86 ± 2.4
330.15 K | 5.19 ± 0.07 | 7.98 ± 0.12 | 16.86 ± 0.27 | 30.2 ± 0.56 | 61.04 ± 1.2
335.15 K | 4.57 ± 0.06 | 6.85 ± 0.1 | 14.03 ± 0.22 | 24.08 ± 0.43 | 46.15 ± 0.93
340.15 K | 4.13 ± 0.06 | 6.04 ± 0.09 | 11.75 ± 0.19 | 19.47 ± 0.34 | 35.24 ± 0.7
345.15 K | 3.68 ± 0.05 | 5.37 ± 0.08 | 9.97 ± 0.16 | 16.1 ± 0.28 | 27.32 ± 0.53
350.15 K | 3.29 ± 0.05 | 4.7 ± 0.06 | 8.55 ± 0.13 | 13.3 ± 0.21 | 22.24 ± 0.39

Cc1c(C)c2c(c(C)c1O)CCC(C)(CCCC(C)CCCC(C)CCCC(C)C)O2 (stereo not drawn) [dl-α-tocopherol] + CCCCCc1ccc(C2CCC(CCC)CC2)cc1
[2], x1 = 1
Conditions | viscosity [mPa·s]
278.15 K | 37128 ± 10000
284.15 K | 15242 ± 3600
290.15 K | 6380 ± 1300
296.15 K | 3017.5 ± 510
302.15 K | 1531 ± 220
308.15 K | 814.81 ± 94
314.15 K | 454.58 ± 42
320.15 K | 283.56 ± 21
325.15 K | 187.51 ± 11
330.15 K | 129.2 ± 5.7
335.15 K | 92.65 ± 3
340.15 K | 67.32 ± 1.6
345.15 K | 49.98 ± 1.1
350.15 K | 37.4 ± 0.85

Cc1c(C)c2c(c(C)c1O)CCC(C)(CCCC(C)CCCC(C)CCCC(C)C)O2 (stereo not drawn) [dl-α-tocopherol] + Cc1cc(C)cc(C)c1
viscosity [mPa·s], [2]
Conditions | x1 = 0.2025 | x1 = 0.4036 | x1 = 0.5972 | x1 = 0.7955 | x1 = 1
278.15 K | 6.85 ± 1.6 | 148.08 ± 15 | 1253.6 ± 170 | 5944.7 ± 1200 | 37128 ± 10000
284.15 K | 5.55 ± 0.11 | 92.32 ± 3.1 | 658.51 ± 71 | 3037.6 ± 510 | 15242 ± 3600
290.15 K | 4.6 ± 0.08 | 56.98 ± 1.3 | 357.26 ± 30 | 1533.2 ± 220 | 6380.1 ± 1300
296.15 K | 3.88 ± 0.07 | 38 ± 0.82 | 210.82 ± 13 | 819.67 ± 95 | 3017.5 ± 510
302.15 K | 3.24 ± 0.06 | 26.65 ± 0.55 | 130.99 ± 5.8 | 477.36 ± 45 | 1531 ± 220
308.15 K | 2.94 ± 0.05 | 19.06 ± 0.38 | 83.96 ± 2.4 | 276.12 ± 20 | 814.81 ± 94
314.15 K | 2.39 ± 0.04 | 14.43 ± 0.27 | 55.52 ± 1.1 | 173.98 ± 9.5 | 454.58 ± 42
320.15 K | 2.14 ± 0.04 | 11.42 ± 0.21 | 40.57 ± 0.81 | 116 ± 4.6 | 283.56 ± 21
325.15 K | 1.96 ± 0.04 | 9.28 ± 0.17 | 30.55 ± 0.62 | 82.01 ± 2.3 | 187.51 ± 11
330.15 K | 1.83 ± 0.03 | 7.75 ± 0.14 | 23.73 ± 0.46 | 60.1 ± 1.2 | 129.2 ± 5.7
335.15 K | 1.72 ± 0.03 | 6.56 ± 0.12 | 18.89 ± 0.36 | 45.63 ± 0.95 | 92.65 ± 3
340.15 K | 1.65 ± 0.03 | 5.59 ± 0.1 | 15.33 ± 0.29 | 34.46 ± 0.72 | 67.32 ± 1.6
345.15 K | 1.52 ± 0.03 | 4.81 ± 0.09 | 12.33 ± 0.23 | 26.47 ± 0.53 | 49.98 ± 1.1
350.15 K | 1.37 ± 0.03 | 4.25 ± 0.08 | 10.5 ± 0.18 | 21.44 ± 0.4 | 37.4 ± 0.85
